Values quoted from earlier work in patent publication US8765768B2, “Heterocyclic compounds and their uses” (Amgen Inc., priority 2010, dated 2014).

Legend:
[1] = test system: model of systemic lupus erythematosis; conditions: in vivo
[2] = test system: mouse model of rheumatoid arthritis; conditions: in vivo
[3] = test system: ovalbumin-induced airway inflammation
p110δ = target: T1, p110δ (Homo sapiens, UniProt O00329)
T1 sequence (O00329 1-1044): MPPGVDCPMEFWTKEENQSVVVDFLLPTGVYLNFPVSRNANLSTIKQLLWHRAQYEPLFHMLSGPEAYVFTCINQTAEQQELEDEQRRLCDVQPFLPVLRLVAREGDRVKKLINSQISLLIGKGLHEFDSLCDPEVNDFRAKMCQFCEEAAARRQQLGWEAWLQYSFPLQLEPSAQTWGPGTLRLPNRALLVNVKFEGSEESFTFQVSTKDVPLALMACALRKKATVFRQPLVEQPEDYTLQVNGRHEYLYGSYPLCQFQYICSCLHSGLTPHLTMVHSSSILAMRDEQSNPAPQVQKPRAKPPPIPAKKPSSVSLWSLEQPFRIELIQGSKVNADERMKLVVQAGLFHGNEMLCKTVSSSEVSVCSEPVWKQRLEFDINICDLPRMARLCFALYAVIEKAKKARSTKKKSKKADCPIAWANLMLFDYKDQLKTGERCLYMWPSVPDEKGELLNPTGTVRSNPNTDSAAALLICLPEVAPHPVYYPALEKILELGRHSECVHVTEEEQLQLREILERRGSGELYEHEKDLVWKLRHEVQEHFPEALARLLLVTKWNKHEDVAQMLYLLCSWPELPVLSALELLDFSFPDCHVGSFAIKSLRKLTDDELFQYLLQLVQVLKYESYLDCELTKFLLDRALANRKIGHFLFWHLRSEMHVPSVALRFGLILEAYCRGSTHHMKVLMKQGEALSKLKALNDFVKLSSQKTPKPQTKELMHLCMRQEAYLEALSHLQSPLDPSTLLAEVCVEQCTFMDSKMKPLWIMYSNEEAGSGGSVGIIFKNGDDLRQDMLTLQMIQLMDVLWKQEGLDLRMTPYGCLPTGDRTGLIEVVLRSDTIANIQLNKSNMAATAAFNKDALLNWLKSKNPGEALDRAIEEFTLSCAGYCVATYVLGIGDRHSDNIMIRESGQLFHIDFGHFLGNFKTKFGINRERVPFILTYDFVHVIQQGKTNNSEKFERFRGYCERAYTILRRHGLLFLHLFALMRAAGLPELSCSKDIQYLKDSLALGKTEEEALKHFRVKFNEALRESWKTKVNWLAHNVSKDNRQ

Compound | onset of disease in a model of systemic lupus erythematosis [1] | efficacy in a mouse model of rheumatoid arthritis [2] | activity against any protein kinases tested (protein kinases) | inflammation and disease in a murine model of asthma [3] | inhibits p110δ (p110δ)
O=C1NC(=O)/C(=C\c2ccc3nccnc3c2)S1 [AS 605240] | delay onset of disease | efficacious | – | – | –
Cc1ccccc1-n1c(Cn2cnc3c(N)ncnc32)nc2cccc(C)c2c1=O [IC87114] | – | – | no activity | significantly ameliorate inflammation and disease | high nanomolar range (triple digit)
